Results taken from PMC10447463, “Data-mining unveils structure–property–activity correlation of viral infectivity enhancing self-assembling peptides” (Nature Communications, 2023).
Like-named read-outs stand apart in the source and are kept apart here.

Columns and labels:
[1] = test system: HIV-1 infection of TZM-bl cells; assay: HIV-1 infectivity enhancement assay, β-galactosidase luminescence; type: cell-based; details: for Rel-EFC: infection relative to EF-C (QCKIKQIINMWQ = 1); for Log10 Infection Rel EFC: log10 of infection relative to EF-C; for Log Infectivity: Log10 infection relative to EF-C, TZM-bl cells, asymmetric std dev errors; for Log10 Infection Rel EF-C: HIV-1 infection of TZM-bl cells; for Log10 of Rel to EFC (Feb2021): Log10 of infection relative to EF-C, all peptides of FigS16
[2] = Turbidity, derived count rate of scattered light; type: physicochemical; details: for Count Rate / kcps: derived count rate of scattered light at 633 nm, 173°, from zeta-potential measurement, 0.1 mg/mL in 1 mM KCl after 1 d at 1 mg/mL in PBS, turbidity / microscopic aggregation, mean of triplicate
In short: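 One-day room-temperature aggregation at 1 mg/mL in PBS (pH 7.4) preceded measurement; samples then went into 1 mM KCl. Triplicates per sample, two independent experiments averaged.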

[3] = β-sheet content by ATR-FT-IR; type: physicochemical; details: for b -sheet / %: Fig. S7 panel A, β-sheet content by ATR-FT-IR
In short: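 β-sheet content came from ATR FT-IR spectra of lyophilized 1 mg/mL nanofibril solution (64 scans, 2 cm^-1 resolution). Conversion was measured by separating free monomer with a 3 kDa cutoff filter, then comparing fluorescamine fluorescence (ex 365/em 470 nm, 20 min RT) of filtrate versus unfiltered sample, in triplicate.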

[4] = Conversion rate (CR) assay with fluorescamine; type: physicochemical; design: key to CR: % = 100−100×filtrate/original fluorescence intensity
Experimental: For ATR FT–IR spectroscopy measurements, 200 µL of the respective 1 mg/mL PNF solution was lyophilized and the resulting powder used for measurement. All spectra were recorded on a Bruker Tensor 27 spectrometer with a diamond crystal as ATR element (PIKE MiracleTM, spectral resolution 2 cm^-1). Every sample was measured with 64 scans. Data were analyzed with OriginLab software and calculation of β–sheet content was conducted according to a previous report. TEM. For TEM measurements 5 µL of PNF fibrils (1 mg/mL) were placed on copper grids coated with carbon and formvar layer (300 mesh, Plano GmbH). After 10 min incubation time, the grids were staining with 4% uranyl acetate solution for 2.5 min and washed with water. Measurements were performed on a Jeol 1400 electron microscope with 120 kV acceleration voltage. CR Assay. For the determination of the amount of peptide monomer converting into nanostructures the amine reactive dye fluorescamine was used analogous to a previous reported protocol. Briefly, 100 µL of the preformed PNF solution was centrifuged in a Vivaspin 500 tube (3 kDa MWCO) to separate fibers from free peptide monomer (16200 x g, 4 °C, 45 min). The filtrate and 100 μL of the non-filtered PNF sample were lyophilized and dissolved in 30 μL DMSO. 10 μL of the filtrate and non-filtered DMSO samples were submitted in a black UV Star® 384 microliter well–plates (Greiner bio–one) and 3 μL of the fluorescamine solution (10 mg/mL, DMSO) was added to measure the fluorescence enhancement. After 20 min of incubation at RT, fluorescence was recorded on an Infinite® M1000 PRO microplate reader (Tecan) at λem = 470 nm upon excitation at λex = 365 nm with 10 nm bandwidths and multiple reads per well (3×3). Measurements were repeated in triplicates and averaged with standard deviation. All values were calculated as n-fold fluorescence enhancement (DMSO only as a reference was set to 1). The conversion rate CR was defined according to the equation Eq. (3).3 CR=100−100×fluorescenceintensityfiltrate/fluorescenceintensityoriginal[%]

[5] = Zeta-potential measurement; type: physicochemical
In short: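 Charge on peptide aggregates was assessed by electrophoretic mobility in 1 mM KCl, converted per Smoluchowski. Prior aggregation: 1 mg/mL, pH 7.4 PBS, 1 d, RT.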

[6] = Fig. S7 panel A (plotted against β-sheet content)
[7] = Fig. S7 panel B (plotted against CR), rounded to two decimals
[8] = Log10 of infection rate relative to EF-C, Figure 3A source data
[9] = infection rate relative to EF-C, log10, data of Figure 2D
[10] = infection rate relative to EF-C, log10, source data of Figure 2C
[11] = Log10 of derived count rate of scattered light (turbidity)
[12] = log10 of derived count rate of scattered light (turbidity)
[13] = turbidity, Log10 of derived count rate of scattered light, Figure 3A source data
[14] = Fig. S7 panel B, conversion rate, fluorescamine assay
[15] = conversion rate, fluorescamine assay
[16] = zeta potential of peptide assemblies
[17] = zeta-potential of peptide, source data of Figure 2C
[18] = zeta-potential of the peptide assemblies, mean, Figure 3A source data

Substance | Rel-EFC ([1]; 1.3 µM peptide) | Log10 Infection Rel EFC ([1]; 1.3 µM peptide) | Log Infectivity [1, 6] | Log Infectivity [1, 7] | Log10 Infection Rel EF-C [1, 8] | Log10 Infection Rel EF-C [1, 9] | Log10 Infection Rel EF-C [1, 10] | Log10 of Rel to EFC (Feb2021) [1] | Log10 Count Rate [2, 11] | Count Rate / kcps [2] [kcps] | Log10 Count Rate [2, 12] | Log10 Count Rate [2, 13] | b -sheet / % [3] [%] | CR / % [4, 14] [%] | CR [4, 15] | Zeta-Pot. [5, 16] | Zeta-Potential / mV [5, 17] [mV] | Zeta-Potential / mV [5, 18] [mV] | also measured
CEFEFQFNMWQ | 0,14 | -0,85 | -0.8509 | -0.85 | -0.85 | -0.8509 | -0.8509 | -0.85 | 2.27 | 186 | 2.27 | 2.27 | 51.48 | 98.6 | 98.63 | -34.23 | -24.5 | -34.23 | 
CEIEIQINM | 0,07 | -1,19 | -1.186 | -1.19 | -1.19 | -1.186 | -1.186 |  | 1.767 | 58 | 1.767 | 1.767 | 46.31 | 43 | 43 | -15.3 | -22.07 | -15.3 | 
CEIEIQINMWQ | 0,22 | -0,66 | -0.6602 | -0.66 | -0.66 | -0.6602 | -0.6602 | -0.66 | 3.196 | 1570 | 3.196 | 3.196 | 49.9 | 67 | 66.95 | -25.8 | -26.07 | -25.8 | 
CKAKAQA | 0,03 | -1,5 | -1.501 | -1.5 | -1.5 | -1.501 | -1.501 |  | 2.56 | 363 | 2.56 | 2.56 | 34.73 | 44 | 44 | -8.01 | -5.031 | -8.01 | 
CKAKAQANM | 0,03 | -1,5 | -1.504 | -1.5 | -1.5 | -1.504 | -1.504 |  | 2.317 | 207 |  | 2.317 | 34.22 | 47.9 | 47.87 |  | -4.618 | -7.77 | Inf. rel. EF-C ([1]; HIV-1 infection relative to EF-C, Fig 23 plot, panels A and B, mean of 3 values): 0.01839; Inf. rel. EF-C ([1]; HIV-1 infection relative to EF-C, Fig 23 plot, single data point, replicate 1): 0.01398; Inf. rel. EF-C ([1]; HIV-1 infection relative to EF-C, Fig 23 plot, single data point, replicate 2): 0.02152; Inf. rel. EF-C ([1]; HIV-1 infection relative to EF-C, Fig 23 plot, single data point, replicate 3): 0.01966; Abs. Inf. / RLU s-1 ([1]; absolute infection rate, peptide 1.3 µM on cells, virus preincubated 10 min with fibrils, read 3 days post infection, mean of triplicate): 430 RLU s-1; Abs. Inf. ([1]; absolute infection signal, HIV-1 on TZM-bl cells, β-galactosidase luminescence): 430; Log10 Inf. rel. to EF-C ([1]; log10 of HIV-1 infection of TZM-bl cells relative to EF-C (EF-C = 0)): -1.504; Inf. rel. EF-C ([1]; n-fold infection vs virus only, relative to that of EF-C, 1.3 µM peptide): 0.03; Log10 Count Rate ([2]; logarithm of count rate in kcps): 2.3; Log10 Count Rate ([2]; turbidity, log10 of derived count rate of scattered light): 2.317; ß-sheet / % ([3]; ATR-FT-IR of lyophilised 1 mg/mL PNF solution, peak integral ratio 1625-1635 cm-1, measured once): 34%; CR / % ([4]; conversion of monomer to nanostructures, 3 kDa MWCO filtration, fluorescamine, ex 365 / em 470 nm, triplicate): 48%; Zeta-Pot. [5]: -7.773; Zeta pot. / mV ([5]; 1 mg/mL in PBS pH 7.4 from 10 mg/mL DMSO stock, 1 d RT, 60 µL diluted in 600 µL 1 mM KCl, Zetasizer Nano ZS, Smoluchowski, mean of triplicate): -7.8 mV
RGDKIKIQINMC | 1,07 | 0,03 |  | 0.03 | 0.03 | 0.02911 | 0.02911 | 0.03 | 3.147 | 1404 | 3.147 | 3.147 |  | 60 | 60 | 12.2 | 13.9 | 12.2 | 
